Measured values published in patent US11759445B2, “Use of Rivastigmine in preparation of anti-radiation medicament” (priority 2020, dated 2023).

How the values were obtained:
C57BL/6 mice = experiment: Survival of mice at a lethal dose (10 Gy whole body irradiation) after intraperitoneal medicament; assay type: in vivo, mouse; conditions: for influence on the survival time of mice after receiving irradiation: i.p. half an hour before 10 Gy whole body irradiation
Description: 1.2.2 Experiment for Verifying the Survival Rate of Mice at a Lethal Dose
Mice were subjected to 10 Gy whole body irradiation with an X-ray biological irradiator in Department of Medicine having a dose rate of 1.5 Gy/min; and before irradiation, mice were intraperitoneally injected the medicament screened out via an in vitro experiment, and then continuously raised in a temporary storage room of the animal center after irradiation.
4 to 6 week-age C57BL/6 mice were selected as experimental subjects, and divided into control groups and experimental groups, and subjected to 10 Gy whole body irradiation with a dose rate of 1.5 Gy/min; mice in the experimental subjects were respectively intraperitoneally injected the medicaments screened half an hour before irradiation, and the survival time was recorded after irradiation. Among the medicaments, water-soluble Don-H, Pra-C and DL-Pan are dissolved by normal saline, and others were dissolved by 5 g/100 mL DMSO+edible oil. The medicament was prepared into a stock solution having a corresponding concentration according to the volume that 20 g mice were intraperitoneally injected 100 μL medicament.

crypt stem cells Lgr5+ = experiment: In vitro medicament screening experiment on crypt stem cells Lgr5+ of mice (GFP fluorescence after 10 Gy irradiation); assay type: cell-based; conditions: Mus musculus, light or radiation study, 240 h, 10 μM medicament, GFP fluorescence 10 d after irradiation, read-out: increment of the Lgr5+ stem cells compared with IR groups
Description: 1.2.1 In Vitro Medicament Screening Experiment on Crypt Stem Cells Lgr5^+ of Mice
1) Lgr5-GFP mice were sacrificed by cervical dislocation, and enterocoelia was opened and the whole small intestine was taken out, and then the small intestine was put to a pre-cooled HBSS buffer solution to remove mesentery and adipose tissues as much as possible, and dissected longitudinally to wash out contents of the small intestine.
2) Villi and contents inside the intestinal cavity were scraped by a glass slide, and then the remaining intestinal cavity was washed for once to twice.
3) The whole small intestine was quickly cut into 5 mm intestinal segments.
4) The intestinal segments were transferred to a 50 mL centrifugal tube, and 25 mL HBSS and 250 μL penicillin/streptomycin solution were added for incubation for 10 min at room temperature, and then the centrifugal tube was slightly inverted to mix evenly for 2-3 times.
5) Supernatant was absorbed, and 10 mL new HBSS was added to wash the intestinal segments for 2-3 times till the final intestinal segments were cleaned thoroughly, then a 70 μm filter sieve was used for filtering to retain the remaining intestinal segments.
6) The intestinal segments were transferred to a 50 mL centrifugal tube, and added to a 10 mL pre-blended digestive solution for incubation for 5 min at room temperature.
7) The centrifugal tube was shaken violently or swirled for several seconds, and then a 70 μm filter sieve was used for filtering.
8) The intestinal segments were transferred to a new 50 mL centrifugal tube, and a 10 mL digestive solution was added for incubation on ice for 30 min, and then the centrifugal tube was shaken violently or swirled for several seconds, and then a 70 μm filter sieve was used for filtering. A black 96-well plate was put on an incubator for preheating during the incubation on ice.
9) The intestinal segments were transferred to a new 50 mL centrifugal tube, and 10 mL HBSS was added, then the centrifugal tube was shaken violently or swirled for several seconds, and a 70 μm filter sieve was used for filtering to retain filtrate.
10) […] for 10 min at 4° C.
11) Supernatant was removed, and crypt cells were precipitated and resuspended by a crypt cell culture solution, and then cell counting was performed microscopically.
12) Cells were diluted by a ratio of the crypt cell culture solution to matrigel=1:1 (v/v), so as to ensure that per 10 μL of mixed liquor contained about 100 crypt cells.
13) The preheated black 96-well plate was taken out, and 10 μL mixed liquor was added to the center of each well, and then the well plate was put to an incubator for 10 min at 37° C.
14) After the matrigel was solidified, each medicament in Bioactive Compound Library (790 types) was diluted by a medium to a final concentration of 10 μM, and then 100 μL was added to per well.
15) The 96-well plate was put on a multi-mode microplate reader to read fluorescence intensity under the conditions of excitation wavelength at 485 nm and emission wavelength at 528 nm, and to record the values on the same day.
16) Crypt cells were irradiated with 10 Gy radiation, and the fluorescence intensity for consecutive 10 d after irradiation was recorded; afterwards, the background fluorescence intensity of a blank control was removed, and a fluorescence intensity curve was drawn; and the test results were shown in FIGS. 1-4.
Crypt stem cells Lgr5^+ separated from Lgr5-GFP mice in vivo carried GFP fluorescence, and the change of the mean fluorescence intensity (MFI) represented the proliferation of crypt stem cells Lgr5*. […]

Structure (SMILES) | influence on the survival time of mice after receiving irradiation (C57BL/6 mice; dose not stated) | fold induction at 10 µM (crypt stem cells Lgr5+) | also measured
CC(C)(CO)C(O)C(=O)NCCCO (racemic) [DL-Panthenol] | no statistical significance | 3.5 | –
C[C@H](CCC(=O)O)[C@H]1CC[C@H]2[C@@H]3C(=O)C[C@@H]4CC(=O)CC[C@]4(C)[C@H]3CC(=O)[C@]12C [Dehydrocholic acid] | – | 3.4 | survival time of the mice (C57BL/6 mice; 10 mg/kg i.p. half an hour before 10 Gy whole body irradiation): did not improve the survival time; survival time of the mice (C57BL/6 mice; 20 mg/kg i.p. half an hour before 10 Gy whole body irradiation): did not improve the survival time; extension of the death time of the mice (C57BL/6 mice; 40 mg/kg i.p. half an hour before 10 Gy whole body irradiation, P<0.01): 2 days; survival time of the mice (C57BL/6 mice; 60 mg/kg i.p. half an hour before 10 Gy whole body irradiation): did not improve the survival time; survival time of the mice (C57BL/6 mice; 80 mg/kg i.p. half an hour before 10 Gy whole body irradiation): did not improve the survival time; survival time of the mice (C57BL/6 mice; 100 mg/kg i.p. half an hour before 10 Gy whole body irradiation): did not improve the survival time
CCCOc1ccn2c(C(C)=O)cc(-c3ccccc3S(C)(=O)=O)c2c1 [GSK2801] | no statistical significance | 14.7 | –
CN1CCCCC1CCN1c2ccccc2Sc2ccc([S+](C)[O-])cc21 (stereo not drawn) [Mesoridazine Besylate] | no statistical significance | 4.2 | –
C[n+]1ccccc1/C=N/O [Pralidoxime chloride] | – | 4.8 | –
CCN(C)C(=O)Oc1cccc([C@H](C)N(C)C)c1 [Rivastigmine] | – | 14.2 | survival of mice after 30 d (C57BL/6 mice; 1 mg/kg i.p. before 10 Gy whole body irradiation): still survival mice after 30 d; survival of mice after 30 d (C57BL/6 mice; 2 mg/kg i.p. before 10 Gy whole body irradiation): still survival mice after 30 d; survival rate (C57BL/6 mice; 2 mg/kg i.p. before 10 Gy whole body irradiation, after 30 d, P<0.001 vs control group): greater than 40%; survival rate of the mice (C57BL/6 mice; intraperitoneally injected, 10 Gy whole body irradiation, 30 days post irradiation, dose not stated): greater than 40%
N#C[C@@H]1C[C@@H]2C[C@@H]2N1C(=O)[C@@H](N)C12CC3CC(CC(O)(C3)C1)C2 [Saxagliptin hydrate] | no statistical significance | 15.9 | –
